# Entries after “also recorded” stand apart in the source; their conditions may differ.
# B1: Sema III: a diffusible member of the semaphorin family, purified from conditioned medium of 293-EBNA cell lines (protein, UniProt Q14563 21-771, looked up)
# Semaphorin-3A: NYQNGKNNVPRLKLSYKEMLESNNVITFNGLANSSSYHTFLLDEERSRLYVGAKDHIFSFDLVNIKDFQKIVWPVSYTRRDECKWAGKDILKECANFIKVLKAYNQTHLYACGTGAFHPICTYIEIGHHPEDNIFKLENSHFENGRGKSPYDPKLLTASLLIDGELYSGTAADFMGRDFAIFRTLGHHHPIRTEQHDSRWLNDPKFISAHLISESDNPEDDKVYFFFRENAIDGEHSGKATHARIGQICKNDFGGHRSLVNKWTTFLKARLICSVPGPNGIDTHFDELQDVFLMNFKDPKNPVVYGVFTTSSNIFKGSAVCMYSMSDVRRVFLGPYAHRDGPNYQWVPYQGRVPYPRPGTCPSKTFGGFDSTKDLPDDVITFARSHPAMYNPVFPMNNRPIVIKTDVNYQFTQIVVDRVDAEDGQYDVMFIGTDVGTVLKVVSIPKETWYDLEEVLLEEMTVFREPTAISAMELSTKQQQLYIGSTAGVAQLPLHRCDIYGKACAECCLARDPYCAWDGSACSRYFPTAKRRTRRQDIRNGDPLTHCSDLHHDNHHGHSPEERIIYGVENSSTFLECSPKSQRALVYWQFQRRNEERKEEIRVDDHIIRTDQGLLLRSLQQKDSGNYLCHAVEHGFIQTLLKVTLEVIDTEHLEELLHKDDDGDGSKTKEMSNSMTPSQKVWYRDFMQLINHPNLNTMDEFCEQVWKRDRKQRRQRPGHTPGNSNKWKHLQENKKGRNRRTHEFERAPRSV
# B2: rMAG: recombinant protein consisting of the extracellular domain of MAG (protein, UniProt P07722 20-516, looked up)
# extracellular domain: GHWGAWMPSSISAFEGTCVSIPCRFDFPDELRPAVVHGVWYFNSPYPKNYPPVVFKSRTQVVHESFQGRSRLLGDLGLRNCTLLLSTLSPELGGKYYFRGDLGGYNQYTFSEHSVLDIINTPNIVVPPEVVAGTEVEVSCMVPDNCPELRPELSWLGHEGLGEPTVLGRLREDEGTWVQVSLLHFVPTREANGHRLGCQAAFPNTTLQFEGYASLDVKYPPVIVEMNSSVEAIEGSHVSLLCGADSNPPPLLTWMRDGMVLREAVAESLYLDLEEVTPAEDGIYACLAENAYGQDNRTVELSVMYAPWKPTVNGTVVAVEGETVSILCSTQSNPDPILTIFKEKQILATVIYESQLQLELPAVTPEDDGEYWCVAENQYGQRATAFNLSVEFAPIILLESHCAAARDTVQCLCVVKSNPEPSVAFELPSRNVTVNETEREFVYSERSGLLLTSILTLRGQAQAPPRVICTSRNLYGTQSLELPFQGAHRLMWAKIGP
# modifications: extracellular domain
# notes: recombinant protein consisting of the extracellular domain of MAG
# Columns and labels:
# Format in all cases: cell-based
# [1] = test system: growth cones of the cultured Xenopus spinal neuron; assay: Growth cone turning in a Sema III gradient; details: for growth cone turning response in Sema III gradient with agent in culture medium: Sema III 50 μg/ml in the pipette, 8-br-cGMP 100 μM, Sp-cGMPS 10 μM, PP-9 10 μM, SNAP 300 μM, Rp-cGMPS 10 μM, cAMPS analogues 20 μM, one-hour exposure; for conversion of the Sema III turning response in the presence of 8-br-cGMP: 8-br-cGMP 100 μM plus Rp-cAMPS or Sp-cAMPS 20 μM
# Protocol: Collapsin-1/Semaphorin III/D (Sema III), a diffusible member of the semaphorin family can repel or cause collapse of growth cones in culture (6). […] We analyzed the effect of a microscopic gradient of Sema III on growth cones of the cultured Xenopus spinal neuron (8). Sema III-containing saline was applied in pulses from a micropipette positioned 100 μm from the center of the growth cone and at a 45° angle with respect to the original direction of neurite extension. […] The repulsive response was dose-dependent with a minimal response occurring at an effective concentration of about 10 ng/ml at the growth cone (8). Heat-inactivated Sema III was ineffective (FIG. 1A). […] The rate of neurite extension was unaffected by the presence of the Sema III gradient.
# (§1) 8. Dissociated Xenopus spinal neurons were prepared as described (4,5). Isolated spinal neurons were used for experiments at room temperature (22°-24° C.) 14-22 hour after plating. Sema III was purified from conditioned medium of stable 293-EBNA cell lines secreting Sema III-AP as described (17). To inactivate Sema III activity, the supernatant containing Sema III-AP was heated at 85° C. for 45 minutes [J. Fan and J. A. Raper, Neuron 14, 263 (1995)]. Microscopic gradients of diffusible factors were produced as described (4,5). The average concentration of factors at the growth cone was about 10^3-fold lower than that in the pipette [A. M. Lohof, M. Quilian, Y. Dan and M-m. Poo, J. Neurosci. 12, 1253 (1992)], and a concentration gradient of 5-10% was created across a growth cone 10 μm wide, 100 μm away from the tip of the ejecting pipette. The original direction of neurite growth was defined by the last 10-μm segment of the neurite. The turning angle was defined by the angle between the original direction of neurite extension and a straight line connecting the positions of the growth cone at the onset and the end of the one hour period. Only growth cones with a net extension >5 μm over the one-hour period were scored.
# (§2) 10. M. A. Schwarzschild and R. E. Zigmond, J. Neurochem. 56, 400 (1991). Pharmacological agents were added to the culture medium at least 30 minutes before the gradient was applied and were present during the experiments. The final concentrations of pharmacological agents in the medium were listed.
# [2] = test system: rat dorsal root ganglion (DRG) axons; assay: Growth cone collapse assay with Sema III on DRG explants; details: for inhibition of the collapsing activity of Sema III: agent added an hour before the collapse assay; for effect of agent alone on growth cones: without Sema III
# Protocol: 21. DRG explants derived from E14 rat embryos were cultured with 25 ng/ml NGF on plates precoated with poly-D-lysine and laminin for 20 hours before experiments as described (17). Pharmacological agents were added an hour before the collapse assay. The collapse assay was performed on sensory axons from these explants using Sema III-AP-containing medium essentially as described (17). For visualization, growth cones were stained with rhodamine-phalloidin, then washed and mounted.
# [3] = test system: growth cones of Xenopus spinal neurons; assay: Growth cone turning in a rMAG gradient; details: for growth cone turning response in rMAG gradient with agent in medium: rMAG 150 μg/ml in the pipette, 8-br-cGMP 100 μM, Sp-cAMPS 20 μM
# Text: To examine whether the responses to other repulsive factors can be converted, we studied myelin-associated glycoprotein (MAG), a component of myelin and an inhibitor of axonal regeneration (22). […] However, the repulsion by rMAG was not affected by the addition of 8-br-cGMP. […] Thus the turning response induced by rMAG can be modulated by cAMP-dependent activities. This is reminiscent of the turning responses induced by gradients of BDNF and netrin-1 (4,5), although the latter factors are normally attractive and are converted to repulsive by inhibition of cAMP-dependent activities.
# as §1
# 10. M. A. Schwarzschild and R. E. Zigmond, J. Neurochem. 56, 400 (1991). Pharmacological agents were added to the culture medium at least 30 minutes before the gradient was applied and were present during the experiments. […]
# [4] = test system: growth cones of Xenopus spinal neurons; assay: Growth cone turning in a netrin-1 gradient; details: for turning response in netrin-1 gradient with agent in medium: netrin-1 5 μg/ml in the pipette, Rp-cGMPS 10 μM, 8-br-cGMP 100 μM, Rp-cAMPS 20 μM
# Protocol: (§3) FIGS. 4A-4D. (A) Effects of manipulating cyclic nucleotide levels on turning induced by a rMAG gradient (150 μg/ml in the pipette) in normal medium, in medium containing 8-br-cGMP (100 μM) or Sp-cAMPS (20 μM), and by heat-inactivated rMAG in normal medium. […] (B) Effects of reducing [Ca^2+]o on turning responses induced by rMAG. […] (C) Turning responses induced by a gradient of netrin-1 (5 μg/ml in the pipette) (5), in normal medium and in medium containing Rp-cGMPS (10 μM), 8-br-cGMP (100 μM), Rp-cAMPS (20 μM), or both Rp-cAMPS (20 μM) and 8-br-cGMP (100 μM). […] (D) Turning induced by a NT-3 gradient (50 μg/ml in the pipette) in normal medium and in medium containing Rp-cAMPS (20 μM) or Rp-cGMPS (10 μM), or in medium containing 1 μM Ca^2+.
# as §1, §2
# [5] = test system: growth cones of Xenopus spinal neurons; assay: Growth cone turning in a NT-3 gradient; details: NT-3 50 μg/ml in the pipette; Rp-cGMPS 10 μM, Rp-cAMPS 20 μM
# Protocol: as §3
# 8. Dissociated Xenopus spinal neurons were prepared as described (4,5). Isolated spinal neurons were used for experiments at room temperature (22°-24° C.) 14-22 hour after plating. Sema III was purified from conditioned medium of stable 293-EBNA cell lines secreting Sema III-AP as described (17). To inactivate Sema III activity, the supernatant containing Sema III-AP was heated at 85° C. for 45 minutes [J. Fan and J. A. Raper, Neuron 14, 263 (1995)]. Microscopic gradients of diffusible factors were produced as described (4,5). […] Only growth cones with a net extension >5 μm over the one-hour period were scored. […]
molecule,measurement,setting,value
CC(=O)N[C@H](C(=O)O)C(C)(C)SN=O (racemic) [S-Nitroso-N-acetylpenicillamine],growth cone turning response in Sema III gradient with agent in culture medium,[1],abolished the repulsive turning response without causing a significant attractive response
"Nc1nc2c(nc(Br)n2[C@@H]2O[C@@H]3COP(=O)(O)O[C@H]3[C@H]2O)c(=O)[nH]1 [Activator 8-br-cGMP, 8-br-cGMP]",inhibition of the collapsing activity of Sema III,[2],inhibited the collapsing activity of Sema III in a dose-dependent manner
same,concentrations needed to inhibit the collapsing activity of Sema III,[2]; rat DRG explants,0.5 to 5 mM
same,effect of agent alone on growth cones,[2],no detectable effect
same,growth cone turning response in Sema III gradient with agent in culture medium,[1],nearly all growth cones turned toward rather than away from the pipette; also recorded: attractive response
same,growth cone turning response in rMAG gradient with agent in medium,[3],not affected
same,repulsive turning in netrin-1 gradient in the presence of Rp-cAMPS,[4]; Rp-cAMPS 20 μM and 8-br-cGMP 100 μM,not affected
same,turning response in netrin-1 gradient with agent in medium,[4],did not affect the attractive turning
Nc1ncnc2c1ncn2[C@@H]1O[C@@H]2CO[P@@](O)(=S)O[C@H]2[C@H]1O [Rp-cAMPS],attractive response in a NT-3 gradient with agent in medium,[5],no effect
same,conversion of the Sema III turning response in the presence of 8-br-cGMP,[1],blocked the conversion of the turning response
same,turning response in netrin-1 gradient with agent in medium,[4],repulsive turning
Nc1nc2c(ncn2[C@@H]2O[C@@H]3COP(O)(=S)O[C@H]3[C@H]2O)c(=O)[nH]1 (stereo partly drawn) [Rp-cGMPS],attractive response in a NT-3 gradient with agent in medium,[5],converted to repulsive response
same,growth cone turning response in Sema III gradient with agent in culture medium,[1],did not affect the growth cone response
same,turning response in netrin-1 gradient with agent in medium,[4],did not affect the attractive turning
Nc1ncnc2c1ncn2[C@@H]1O[C@@H]2COP(O)(=S)O[C@H]2[C@H]1O (stereo partly drawn) [Sp-cAMPS],inhibition of the collapsing activity of Sema III,[2],not
same,effect of agent alone on growth cones,[2],no detectable effect
same,conversion of the Sema III turning response in the presence of 8-br-cGMP,[1],not
same,growth cone turning response in rMAG gradient with agent in medium,[3],converted to attraction
Nc1nc2c(ncn2[C@@H]2O[C@@H]3COP(O)(=S)O[C@H]3[C@H]2O)c(=O)[nH]1 (stereo partly drawn) [Sp-cGMPS],growth cone turning response in Sema III gradient with agent in culture medium,[1],nearly all growth cones turned toward rather than away from the pipette
B1,rate of neurite extension,[1]; in the presence of the Sema III gradient,unaffected
same,effective concentration at the growth cone for minimal repulsive response,[1]; normal medium,about 10 ng/ml
same,growth cone turning induced by the factor gradient,"[1]; normal medium, pipette 100 μm from growth cone, 45° angle",Most growth cones grew away from the pipette
same,collapse of growth cones,[1]; up to 100 μg/ml of Sema III in the pipette,No obvious collapse of growth cones
B2,growth cone turning induced by the rMAG gradient,[3]; normal medium,repelled growth cones

# Reference: patent US6512004B2, “Promoters of neural regeneration” (The Regents of the University of California, priority 1998, dated 2003)
